Patent US20250339569A1, “CARBONIC ANHYDRASE IX LIGANDS” (priority 2021, published 2025)
Read-outs that look alike come from different tables or passages of the source. Starred links: 1 amine or outer side, 2 acyl side, 3 side chain; linkers in the order of their positions; H or OH if unused. Positions of bridges follow the written chain, without caps; N, C: chain ends. Non-standard residues stand in square brackets, D forms with d. Residues, ends and D or L forms follow the SMILES beside them. *: point of attachment. NH(CH2)3NHDOTA = O=C(O)CN1CCN(CC(=O)O)CCN(CC(=O)NCCCN*)CCN(CC(=O)O)CC1; DOTA = O=C(O)CN1CCN(CC(=O)O)CCN(CC(=O)*)CCN(CC(=O)O)CC1; mXylylene = c1cc(C[*:1])cc(C[*:2])c1; Bta = N[C@@H](Cc1csc2ccccc12)C(=O)O; dOrn(Me2) = CN(C)CCC[C@@H](N)C(=O)O; Orn(Me2) = CN(C)CCC[C@H](N)C(=O)O; Trx = NC[C@H]1CC[C@H](C(=O)O)CC1; X2 = O=C(CN1CCC(N[*:1])CC1)[*:2]; hSer = N[C@@H](CCO)C(=O)O; Ac5c = NC1(C(=O)O)CCCC1; AEEA = NCCOCCOCC(=O)O; Sar = CNCC(=O)O

Assays:
[1] = target: T1, CAIX-expressing human HT-29 colorectal cancer cells (Homo sapiens, UniProt Q16790); assay: FACS binding assay (IC50 determination, competition with tracer 3BP-2776 or 3BP-4149); conditions: 4° C., 1 hour, read-out: pIC50 category (activity) (converted)
T1 construct: CAIX-expressing human HT-29 colorectal cancer cells; host or cells: HT-29 human colorectal cancer cells
In short: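 HT-29 cells in FACS buffer (PBS, 1% FCS) at 500.000 cells/ml were exposed to compounds competing with a labelled tracer, with biotinylated compounds detected by 1 μg/mL APC-streptavidin for 30 min on ice. APC/Cy5 median fluorescence was read by flow cytometry and IC50 derived by 4PL fit.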

[2] = target: T2, human carbonic anhydrase IX (hCAIX-Fc) (Homo sapiens, UniProt Q16790); assay: Surface plasmon resonance assay with hCAIX-Fc; type: binding; conditions: 25° C.; for t1/2 category (activity): SPR dissociation half-life, hCAIX-Fc; for Kd: SPR, hCAIX-Fc captured, read-out: pKD category (activity) (converted)
T2 construct: purchased SinoBliological (Sino Biological) 10107-H02H
Description: Surface plasmon resonance (SPR) studies were performed using a Biacore™ T200 SPR system (GE Healthcare Life Sciences). Briefly, polarized light is directed towards a gold-labeled sensor surface, and minimum intensity reflected light is detected. The angle of reflected light changes as molecules bind and dissociate.
Fc-fusion protein of human carbonic anhydrase IX (hCAIX-Fc, SinoBliological, Cat #10107-H02H) was captured on a Fc-capture chip (Biacore™ CM5 sensor chip coated with ˜300 RU of an Fc-binding peptide). Recombinant carbonic anydrase was diluted in Running Buffer (PBST, 0.1% DMSO) to a final concentration 100 or 200 nM and than flushed over the Fc-capture chip to immobilized ˜1000 RUs.
Stock solutions of test compounds were prepared by dissolving each compound in DMSO. DMSO stock solution were diluted 1:1000 in Running Buffer without DMSO. Further sequencial dilutions were made with Running Buffer containing 0.1% DMSO. SPR binding analyses were performed in Single Cycle Kinetic (SCK) mode at 25° C. Flow cell coated with the Fc-binding peptide only served as reference flowcell. After each SCK run, carbonic andydrase IX was removed with 10 mM glycine buffer, pH 1.5.
In between every three SCK measurements, a blank run with Running Buffer instead of test compound was included to correct for baseline drifts (double blanking methods).
Table 11 describes the protocol steps for Fc-fusion target capturing and assessment of the binding kinetics.
For each test compound, SPR raw data in the form of resonance units (RU) were plotted as sensorgrams using the Biacore™ T200 control software. The signal from the blank sensorgram was subtracted from that of the test compound sensorgram (blank corrected). The blank corrected sensorgram was corrected for baseline drift by subtracting the sensorgram of a SCK run without the test compound (running buffer only). The association rate (kon), dissociation rate (koff), dissociation constant (KD), and t1/2 were calculated from Blank-normalized SPR data using the 1:1 Langmuir binding model from the Biacore™ T200 evaluation software. Raw data and fit results were imported as text files in IDBS. The pKD value (negative decadic logarithm of dissociation constant) was calculated in the IDBS excel template.

[3] = FACS competition on HT-29 cells, Tracer ID 3BP-2776 (10 nM, biotin-labeled)
[4] = FACS binding assay, HT-29 cells, competition with tracer 3BP-2776 (10 nM, biotin-labeled)

Row | Compound | IC50 [1, 3] | t1/2 category (activity) [2] | Kd [2] | IC50 [1, 4]
1 | CC(=O)N[C@H](C(=O)N[C@@H](Cc1ccc(O)cc1)C(=O)N[C@H]1CSCc2cccc(c2)CSC[C@@H](C(N)=O)NC(=O)[C@H](CCC(N)=O)NC(=O)[C@H](Cc2c[nH]c3ccccc23)NC(=O)[C@H]([C@@H](C)O)NC(=O)[C@H](CC(C)C)NC(=O)[C@H](Cc2csc3ccccc23)NC(=O)[C@H](CC(=O)O)NC(=O)CN(C)C(=O)[C@H](CCC(=O)O)NC1=O)C(C)C [3BP-3311] (Ac-VYCE[Sar]D[Bta]LTWQC-NH2; linker 3-12 via mXylylene) | < 0.01 µM | C (t1/2 between 2.1 and 5.0 minutes) | < 0.01 µM | 
2 | CC(=O)N[C@H](C(=O)N[C@@H](Cc1ccc(O)cc1)C(=O)N[C@H]1CSCc2cccc(c2)CSC[C@@H](C(N)=O)NC(=O)[C@H](C)NC(=O)[C@H](Cc2c[nH]c3ccccc23)NC(=O)[C@H]([C@@H](C)O)NC(=O)[C@H](CC(C)C)NC(=O)[C@H](Cc2c[nH]c3ccccc23)NC(=O)[C@H](CC(=O)O)NC(=O)CN(C)C(=O)[C@H](CCC(=O)O)NC1=O)C(C)C [3BP-3313] (Ac-VYCE[Sar]DWLTWAC-NH2; linker 3-12 via mXylylene) | < 0.01 µM | C (t1/2 between 2.1 and 5.0 minutes) | < 0.01 µM | 
3 | CC(=O)N[C@H](C(=O)N[C@@H](Cc1ccc(O)cc1)C(=O)N[C@H]1CSCc2cccc(c2)CSC[C@@H](C(N)=O)NC(=O)[C@H](CO)NC(=O)[C@H](Cc2c[nH]c3ccccc23)NC(=O)[C@H]([C@@H](C)O)NC(=O)[C@H](CC(C)C)NC(=O)[C@H](Cc2c[nH]c3ccccc23)NC(=O)[C@H](CC(=O)O)NC(=O)[C@H]2CCCN2C(=O)[C@H](CCC(=O)O)NC1=O)C(C)C [3BP-3565] (Ac-VYCE[dP]DWLTWSC-NH2; linker 3-12 via mXylylene) | < 0.01 µM | A (t1/2>15.0 minutes) | < 0.01 µM | 
4 | CC(C)[C@H](NC(=O)CN1CCC(NC(=O)CN2CCN(CC(=O)O)CCN(CC(=O)O)CCN(CC(=O)O)CC2)CC1)C(=O)N[C@@H](Cc1ccc(O)cc1)C(=O)N[C@H]1CSCc2cccc(c2)CSC[C@@H](C(N)=O)NC(=O)[C@H](CO)NC(=O)[C@H](Cc2c[nH]c3ccccc23)NC(=O)[C@H]([C@@H](C)O)NC(=O)C2(CCCC2)NC(=O)[C@H](Cc2c[nH]c3ccccc23)NC(=O)[C@H](CC(=O)O)NC(=O)[C@H]2CCCN2C(=O)[C@H](CCC(=O)O)NC1=O [3BP-3587] ({DOTA}-[X2]VYCE[dP]DW[Ac5c]TWSC-NH2; linker 4-13 via mXylylene) | < 0.01 µM | C (t1/2 between 2.1 and 5.0 minutes) | < 0.01 µM | 
5 | CC(C)C[C@@H]1NC(=O)[C@H](Cc2c[nH]c3ccccc23)NC(=O)[C@H](CC(=O)O)NC(=O)[C@H]2CCCN2C(=O)[C@H](CCC(=O)O)NC(=O)[C@@H](NC(=O)[C@H](Cc2ccc(O)cc2)NC(=O)COCCOCCNC(=O)CN2CCN(CC(=O)O)CCN(CC(=O)O)CCN(CC(=O)O)CC2)CSCc2cccc(c2)CSC[C@@H](C(N)=O)NC(=O)[C@H](CO)NC(=O)[C@H](Cc2c[nH]c3ccccc23)NC(=O)[C@H]([C@@H](C)O)NC1=O [3BP-3869] ({DOTA-AEEA}-YCE[dP]DWLTWSC-NH2; linker 2-11 via mXylylene) | < 0.01 µM | C (t1/2 between 2.1 and 5.0 minutes) | 0.01 to 0.0794 µM | 
6 | CC(=O)N[C@@H](CO)C(=O)N[C@@H](Cc1ccc(O)cc1)C(=O)N[C@H]1CSCc2cccc(c2)CSC[C@@H](C(N)=O)NC(=O)[C@H](CCC(=O)NCCCNC(=O)CN2CCN(CC(=O)O)CCN(CC(=O)O)CCN(CC(=O)O)CC2)NC(=O)[C@H](Cc2c[nH]c3ccccc23)NC(=O)[C@H]([C@@H](C)O)NC(=O)[C@H](CC(C)C)NC(=O)[C@H](Cc2c[nH]c3ccccc23)NC(=O)[C@H](CC(=O)O)NC(=O)[C@H]2CCCN2C(=O)[C@H](CCC(=O)O)NC1=O [3BP-3873] (Ac-SYCE[dP]DWLTWE(NH(CH2)3NHDOTA)C-NH2; linker 3-12 via mXylylene) | < 0.01 µM | B (t1/2 between 5.1 and 15.0 minutes) | < 0.01 µM | 
7 | CC(C)C[C@@H]1NC(=O)[C@H](Cc2c[nH]c3ccccc23)NC(=O)[C@H](CC(=O)O)NC(=O)[C@@H](CCCN(C)C)NC(=O)[C@H](CCC(=O)O)NC(=O)[C@@H](NC(=O)[C@H](Cc2ccc(O)cc2)NC(=O)[C@@H](NC(=O)CN2CCC(NC(=O)CN3CCN(CC(=O)O)CCN(CC(=O)O)CCN(CC(=O)O)CC3)CC2)C(C)C)CSCc2cccc(c2)CSC[C@@H](C(N)=O)NC(=O)[C@H](CO)NC(=O)[C@H](Cc2c[nH]c3ccccc23)NC(=O)[C@H]([C@@H](C)O)NC1=O [3BP-4097] ({DOTA}-[X2]VYCE[dOrn(Me2)]DWLTWSC-NH2; linker 4-13 via mXylylene) |  |  | < 0.01 µM | < 0.01 µM

Now from value to compound:

Row | IC50 [1, 3] | t1/2 category (activity) [2] | Kd [2] | IC50 [1, 4] | Compound
8 | < 0.01 µM | D (t1/2≤2.0 minutes) | < 0.01 µM |  | CC(C)C[C@@H]1NC(=O)[C@H](Cc2c[nH]c3ccccc23)NC(=O)[C@H](CC(=O)O)NC(=O)[C@H]2CCCN2C(=O)[C@H](CCC(=O)O)NC(=O)[C@@H](NC(=O)CN2CCC(NC(=O)CN3CCN(CC(=O)O)CCN(CC(=O)O)CCN(CC(=O)O)CC3)CC2)CSCc2cccc(c2)CSC[C@@H](C(N)=O)NC(=O)[C@H](CO)NC(=O)[C@H](Cc2c[nH]c3ccccc23)NC(=O)[C@H]([C@@H](C)O)NC1=O [3BP-3858] ({DOTA}-[X2]CE[dP]DWLTWSC-NH2; linker 2-11 via mXylylene)
9 | < 0.01 µM | C (t1/2 between 2.1 and 5.0 minutes) | < 0.01 µM |  | CC(C)C[C@@H]1NC(=O)[C@H](Cc2c[nH]c3ccccc23)NC(=O)[C@H](CC(=O)O)NC(=O)[C@H]2CCCN2C(=O)[C@H](CCC(=O)O)NC(=O)[C@@H](NC(=O)[C@H](Cc2ccc(O)cc2)NC(=O)CN2CCC(NC(=O)CN3CCN(CC(=O)O)CCN(CC(=O)O)CCN(CC(=O)O)CC3)CC2)CSCc2cccc(c2)CSC[C@@H](C(N)=O)NC(=O)[C@H](CO)NC(=O)[C@H](Cc2c[nH]c3ccccc23)NC(=O)[C@H]([C@@H](C)O)NC1=O [3BP-3867] ({DOTA}-[X2]YCE[dP]DWLTWSC-NH2; linker 3-12 via mXylylene)
10 | < 0.01 µM | B (t1/2 between 5.1 and 15.0 minutes) | < 0.01 µM |  | CC(C)C[C@@H]1NC(=O)[C@H](Cc2c[nH]c3ccccc23)NC(=O)[C@H](CC(=O)O)NC(=O)[C@H]2CCCN2C(=O)[C@H](CCC(=O)O)NC(=O)[C@@H](NC(=O)[C@H](Cc2ccc(O)cc2)NC(=O)[C@H]2CC[C@H](CNC(=O)CN3CCN(CC(=O)O)CCN(CC(=O)O)CCN(CC(=O)O)CC3)CC2)CSCc2cccc(c2)CSC[C@@H](C(N)=O)NC(=O)[C@H](CO)NC(=O)[C@H](Cc2c[nH]c3ccccc23)NC(=O)[C@H]([C@@H](C)O)NC1=O [3BP-3868] ({DOTA-Trx}-YCE[dP]DWLTWSC-NH2; linker 2-11 via mXylylene)
11 |  | B (t1/2 between 5.1 and 15.0 minutes) | < 0.01 µM | < 0.01 µM | CC(C)C[C@@H]1NC(=O)[C@H](Cc2c[nH]c3ccccc23)NC(=O)[C@H](CC(=O)O)NC(=O)[C@H]2CCCN2C(=O)[C@H](CCC(=O)O)NC(=O)[C@@H](NC(=O)[C@H](CCCN(C)C)NC(=O)[C@@H](NC(=O)CN2CCC(NC(=O)CN3CCN(CC(=O)O)CCN(CC(=O)O)CCN(CC(=O)O)CC3)CC2)C(C)C)CSCc2cccc(c2)CSC[C@@H](C(N)=O)NC(=O)[C@H](CO)NC(=O)[C@H](Cc2c[nH]c3ccccc23)NC(=O)[C@H]([C@@H](C)O)NC1=O [3BP-4095] ({DOTA}-[X2]V[Orn(Me2)]CE[dP]DWLTWSC-NH2; linker 4-13 via mXylylene)
12 |  | A (t1/2>15.0 minutes) | < 0.01 µM | < 0.01 µM | CC(C)C[C@@H]1NC(=O)[C@H](Cc2c[nH]c3ccccc23)NC(=O)[C@H](CCO)NC(=O)[C@H]2CCCN2C(=O)[C@H](CCC(=O)O)NC(=O)[C@@H](NC(=O)[C@H](Cc2ccc(O)cc2)NC(=O)[C@@H](NC(=O)CN2CCC(NC(=O)CN3CCN(CC(=O)O)CCN(CC(=O)O)CCN(CC(=O)O)CC3)CC2)C(C)C)CSCc2cccc(c2)CSC[C@@H](C(N)=O)NC(=O)[C@H](CO)NC(=O)[C@H](Cc2c[nH]c3ccccc23)NC(=O)[C@H]([C@@H](C)O)NC1=O [3BP-4102] ({DOTA}-[X2]VYCE[dP][hSer]WLTWSC-NH2; linker 4-13 via mXylylene)
